Source: publication PMC12332404, “Cytochrome P450BM-3 and P450 11A1 retain Compound I (FeO^3+) chemistry with electrophilic substrates poised for Compound 0 (Fe^3+O2^−) reactions” (The Journal of Biological Chemistry, 2025)

Experiments:
[1] = target: T1, P450BM-3 (102A1) (Priestia megaterium, UniProt P14779); experiment: UV-vis spectral binding titration (Type I shift, […] to […] nm)
T1 construct: gene cyp102A1
T1 sequence (P14779 1-1049): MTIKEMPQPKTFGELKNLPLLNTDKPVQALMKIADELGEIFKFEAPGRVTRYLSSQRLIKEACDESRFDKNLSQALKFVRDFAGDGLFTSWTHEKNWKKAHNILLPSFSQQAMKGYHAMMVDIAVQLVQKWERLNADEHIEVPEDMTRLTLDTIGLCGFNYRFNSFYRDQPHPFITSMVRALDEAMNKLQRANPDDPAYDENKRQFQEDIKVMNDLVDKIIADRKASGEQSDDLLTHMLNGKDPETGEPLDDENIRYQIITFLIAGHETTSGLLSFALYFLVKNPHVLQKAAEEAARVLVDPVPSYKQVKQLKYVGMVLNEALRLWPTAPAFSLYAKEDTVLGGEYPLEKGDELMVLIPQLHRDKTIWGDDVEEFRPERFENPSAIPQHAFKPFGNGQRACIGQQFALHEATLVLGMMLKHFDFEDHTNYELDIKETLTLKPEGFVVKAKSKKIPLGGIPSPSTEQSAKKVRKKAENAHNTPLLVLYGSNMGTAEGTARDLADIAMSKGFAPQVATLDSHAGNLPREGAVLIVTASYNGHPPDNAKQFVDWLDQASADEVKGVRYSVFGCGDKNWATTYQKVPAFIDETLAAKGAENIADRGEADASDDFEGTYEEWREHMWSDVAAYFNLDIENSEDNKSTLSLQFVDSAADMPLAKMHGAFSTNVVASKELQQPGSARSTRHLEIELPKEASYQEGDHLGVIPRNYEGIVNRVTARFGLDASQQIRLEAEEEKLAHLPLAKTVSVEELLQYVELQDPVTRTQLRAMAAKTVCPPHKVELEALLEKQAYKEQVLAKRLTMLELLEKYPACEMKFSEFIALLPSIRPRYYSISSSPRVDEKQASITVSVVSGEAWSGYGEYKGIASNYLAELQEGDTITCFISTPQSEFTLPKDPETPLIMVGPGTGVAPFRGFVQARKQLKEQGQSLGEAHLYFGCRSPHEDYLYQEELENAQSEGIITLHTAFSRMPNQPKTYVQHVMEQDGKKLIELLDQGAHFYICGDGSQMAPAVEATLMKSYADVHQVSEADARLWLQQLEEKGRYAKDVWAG

[2] = target: T2, P450 11A1 (Homo sapiens, UniProt P05108); experiment: UV-vis spectral binding titration (Type II behavior); LC-MS turnover
T2 construct: gene CYP11A1
T2 sequence (P05108 40-521): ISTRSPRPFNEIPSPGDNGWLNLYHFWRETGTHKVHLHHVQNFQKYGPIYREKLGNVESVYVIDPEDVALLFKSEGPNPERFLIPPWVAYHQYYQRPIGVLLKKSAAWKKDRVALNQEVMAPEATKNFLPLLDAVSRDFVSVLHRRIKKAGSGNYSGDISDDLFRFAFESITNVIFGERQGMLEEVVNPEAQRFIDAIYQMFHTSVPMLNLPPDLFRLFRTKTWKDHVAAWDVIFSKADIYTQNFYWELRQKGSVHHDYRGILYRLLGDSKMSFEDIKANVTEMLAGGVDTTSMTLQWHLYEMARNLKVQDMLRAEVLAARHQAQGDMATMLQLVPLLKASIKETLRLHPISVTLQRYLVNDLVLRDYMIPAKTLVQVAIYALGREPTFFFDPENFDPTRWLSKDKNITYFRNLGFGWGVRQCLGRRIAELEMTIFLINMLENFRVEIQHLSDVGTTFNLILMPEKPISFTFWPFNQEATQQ

[3] = target: T1, P450BM-3 (102A1); experiment: NADPH oxidation and LC-MS hydroxylation rate ([…] min^-1) with purified enzyme; format: biochemical
[4] = target: T1, P450BM-3 (102A1); experiment: as above; format: biochemical; remark: listed apart in the source
[5] = target: T1, P450BM-3 (102A1); experiment: as above; format: biochemical; remark: listed apart in the source

## CC(=O)CCCCCCCCCCC(=O)O [12-oxo C13:0, 12-oxotridecanoic acid]
[1]
  Kd: ~250 µM

## CC(C)CCC(=O)[C@@H](C)[C@H]1CC[C@H]2[C@@H]3CC=C4C[C@@H](O)CC[C@]4(C)[C@H]3CC[C@]12C [22-oxocholesterol]
[2]
  Kd: 43 ± 20 µM

## CCCCCCCCCCCC(=O)O [C12:0, dodecanoic acid]
[3]
  NADPH oxidation and LC-MS hydroxylation rate (2.4 min^-1) with purified enzyme: 2.4 min⁻¹

## CCCCCCCCCCCCCC(=O)O [C14:0, tetradecanoic acid]
[4]
  NADPH oxidation and LC-MS hydroxylation rate (73 min^-1) with purified enzyme: 73 min⁻¹

## CCCCCCCCCCCCCCCC(=O)O [C16:0, palmitic acid]
[5]
  NADPH oxidation and LC-MS hydroxylation rate (100 min^-1) with purified enzyme: 100 min⁻¹
